Reference: patent US4186136A, “Novel benzothienyl amino (propyl and butyl) ketones, a method of preparation thereof and their application to therapeutics” (priority 1975, dated 1980)
Values after ≈ are worked out from the molar mass of the structure shown. Structures can show the parent of a compound that is named as a salt.

What was measured:
[1] = system: rat's isolated duodenum; test: Spasmolytic activity on isolated duodenum contracted by barium chloride (Magnus); conditions: for ED 50 (R) / ED 50 (X): relative to papaverine hydrochloride
Procedure: The spasmolytic activity was studied on a rat's isolated duodenum maintained in a survival medium of an aerated Tyrode solution heated to 38° C. according to the technique of Magnus (Magnus R.-Archivs ges. Physiol., 1905, 180, 1-71).
The contracting agent used was barium chloride, the reference antogonist agent being papaverine hydrochloride (R). The average activity of the compounds of formula I (X) in comparison with that of the reference agent was expressed by calculating the ratio of the 50 efficient doses (ED 50) determined graphically on logarithmic paper: [formula]
For example: a substance having a relative activity expressed by the FIG. 2 presents an activity equal to twice that of papaverine hydrochloride.

[2] = system: isolated heart of a gumea-pig; test: Vaso-dilatatory activity, coronary flow of isolated perfused heart
Procedure: The coronary flow is recorded, by means of an electronic device fitted with a Fleish totaliser, before and after addition of the substance X under study (concentration: 1×10^-5 g/ml), the reference product (R) being 2,6-bis (diethanolamino) 4,8-dipiperidinopyrimido[5,4-d]pyrimidine (known under the trademark "Dipyridamole") used at a concentration of 1×10^-5 g/ml.
The percentage flow increase P was calculated at the climax of the activity of X or R.

[3] = system: mouse; test: Acute toxicity, oral, mouse (LD 50, Miller and Tainter); type: in vivo; conditions: death rate checked for seven days, 10080 min
Procedure: (§1) The acute toxicity of the compounds of formula (I) were evaluated orally (esophagean probe) on a mouse deprived of food 18 hours before the beginning of the test. The products were placed in suspension in a solution of dilute carboxymethyl cellulose. Calculation of the 50 lethal dose (LD 50) was effected according to the method of Miller and Tainter (Miller L. C., Tainter M. L., Proc. Soc. Exptl. Biol. Med. 1944, 57, 261-264).
(§2) The death rate was checked for seven days following the treatment.
(§3) Table III gives the 50% lethal doses (LD 50) in milligrammes per kilogramme body weight.

[4] = system: phenylparaquinone (P.P.Q.) painful syndrome in a mouse; test: Analgesic and anti-inflammatory activity, phenylparaquinone (P.P.Q.) painful syndrome; type: in vivo; conditions: for Analgesic and anti-inflammatory activity, percentage activity a(X): 50 mg/kg digestively, crises between 10 and 15 minutes; for a(X) / a(R), analgesic and anti-inflammatory activity: X 50 mg/kg, R (Galfenine) 25 mg/kg
Procedure: The intraperitoneal injection of phenylparaquinone (P.P.Q.) in a mouse causes the appearance of a painful syndrome appearing within 5 minutes of the injection and disappearing after about 30 minutes (SIEGMUND E. A., CADMUS A., LU G., J. Pharmacol. Exp. Therap. 1957, 119, 453). This painful syndrome manifests itself in the animal by a series of characteristic crises, more or less close together and fleeting, during which we can note a twisting or stretching of the body, a hollowing of the sides and a stretching of the hind legs.
It is therefore possible to note the number of crises in a given interval of time.
The preventive administration of analgesic or anti-inflammatory substances prevents the appearance of crises or reduces the frequency thereof.
The reference substance (R) used in the tests was the ester of N-(7-chloro-4 quinolyl) anthranilic acid and 2,3-dihydroxy n.propanol (known under the trademark Galfenine).
It was administered orally with a dose of 25 mg/kg.
The compounds of formula I (X) were administered digestively with a dose of 50 mg/kg.
The interval of time (t) which was chosen to evaluate the analgesic activity was between 10 and 15 minutes which is the period of maximum frequency of the crises. This activity was expressed in the following way:
n: number of crises observed in the control mice;
n': number of crises observed in mice previously treated with the reference substance (R);
n": number of crises observed in mice having received the substance (X).
The percentage activity of R is equal to [formula]
The percentage activity of X is equal to [formula]
The activity of X in relation to that of R is estimated by the ratio [formula]
For example: a compound X for which [formula] is 0.5 has an activity equal to half that of the reference product.

[5] = system: human blood-plaques (aggregation with collagene); test: Inhibition of blood-plaque aggregation induced by collagene; type: cell-based; conditions: for Ratio of a (X) to a (R), COLLAGENE (head drawn): X 2×10^-5 g/ml, R 2×10^-4 g/ml
Excerpt: (§4) The blood plaques used for these studies were human blood-plaques introduced into the test in the form of blood-plaque rich plasmas (B.P.R.P.).
(§5) These latter were obtained as water-repellent material by slow centrifugation from human blood samples.
(§6) The study of blood-plaque aggregation was made by means of an aggregate-meter with continuous agitation and graphic recording according to the conventional method. (PROST R. S., SOUVERAIN C. H., DOUMENC J., Etude de l'agregation plaquettaire a l'aide de l'agregametre de MUSTARD-Coagulation, 1971, 4, 2, 145-151).
(§7) The agents employed for inducing aggregation were diphosphoric adenosine acid (D.P.A.), 1-(3',4'-di-hydroxyphenyl)-2-methylamino ethanol (adrenaline) and collagene. All these reactants were prepared from mother solutions diluted in a Michaelis' buffer. Their concentration in the test may vary according to the affinity of the blood-plaques.
(§8) An optimum concentration is thus sought by successive tests on the same B.P.R.P.
(§9) The inhibitory activity on the aggregation was evaluated by addition of the product under study to the B.P.R.P. before introduction of the aggregating agent.
(§10) The concentrations of compounds of formula I (X) in the B.P.R.P. are: C (X)=2.5×10^-5 g/ml for aggregation with D.P.A. and adrenaline, and C (X)=2×10^-5 g/ml for collagene.
(§11) The reference product (R) is 2,6-bis (diethanolamino)-4,8-dipiperidinopyrimido[5,4-d]pyramidine (known under the trademark "Dipyridamole") used in the concentration C (R)=5×10^-4 g/ml for aggregation with D.P.A. and adrenaline and C (R)=2×10^-4 g/ml for aggregation with collagene.
(§12) The following table IV indicates the activity of some compounds of formula I: a (X) the activity of the reference product: a (R) and the different values of the ratio: [formula]

[6] = system: human blood-plaques (aggregation with D.P.A.); test: Inhibition of blood-plaque aggregation induced by D.P.A.; type: cell-based
Excerpt: as §4, §5, §6, §7, §8, §9, §10, §11, §12

[7] = system: human blood-plaques (aggregation with adrenaline); test: Inhibition of blood-plaque aggregation induced by adrenaline; type: cell-based; conditions: hydrochloride
Excerpt: as §4, §5, §6, §7, §8, §9, §10, §11, §12

[8] = system: human blood-plaques; test: Blood-plaque aggregation inhibition (all inducers, overall statement); type: cell-based; conditions: compared with reference product, taking the ratio into account
Excerpt: as §4, §5, §6, §7, §8, §9
The concentrations of compounds of formula I (X) in the B.P.R.P. are: C (X)=2.5×10^-5 g/ml for aggregation with D.P.A. and adrenaline, and C (X)=2×10^-5 g/ml for collagene. […]

[9] = Acute toxicity, oral, mouse (LD 50, Miller and Tainter); type: in vivo; conditions: in vivo, po, death rate checked for seven days, read-out: 50% lethal dose (LD 50) (converted)
Procedure: as §1, §2, §3

CCN(CC)CCCC(=O)c1csc2ccccc12 [Compound 10]
ED 50 (R) / ED 50 (X) [1]: 1.05
activation at 10 µg/mL ([2]; 1×10^-5 g/ml, coronary flow at climax of activity, Locke, 37° C., read-out: Percentage flow increase P (X)): 60%
P (X) / P (R) ([2]; relative to Dipyridamole, both 1×10^-5 g/ml): 1.4
50% lethal dose (LD 50) [3]: 1 100 mg/kg/p.o.

O=C(CCCN1CCCCCC1)c1csc2ccccc12 [Compound 16]
Analgesic and anti-inflammatory activity, percentage activity a(X) [4]: 44%
a(X) / a(R), analgesic and anti-inflammatory activity [4]: 5.9 × 10^-1
inhibition at 20 µg/mL ([5]; Homo sapiens, C (X)=2×10^-5 g/ml, read-out: Inhibitory activity of the blood-plaque aggregation, COLLAGENE, a (X)): 92%
Ratio of a (X) to a (R), COLLAGENE (head drawn) [5]: 2.5
ED 50 (R) / ED 50 (X) [1]: 2.7
Inhibitory activity of the blood-plaque aggregation, D.P.A., a (X) ([6]; C (X)=2.5×10^-5 g/ml): 47%
Ratio of a (X) to a (R), D.P.A. (head drawn) ([6]; D.P.A., X 2.5×10^-5 g/ml, R 5×10^-4 g/ml): 5.5×10^-1
50% lethal dose (LD 50) [3]: 1 200 mg/kg/p.o.

O=C(CCCN1CCOCC1)c1cc2ccccc2s1 [Compound 2, 1-(benzothien-2'-yl)-4-N-morpholino butanone hydrochloride]
Analgesic and anti-inflammatory activity, percentage activity a(X) ([4]; hydrochloride): 38%
a(X) / a(R), analgesic and anti-inflammatory activity ([4]; hydrochloride): 5 × 10^-1
Inhibitory activity of the blood-plaque aggregation, COLLAGENE, a (X) ([5]; C (X)=2×10^-5 g/ml, hydrochloride): 12%
Ratio of a (X) to a (R), COLLAGENE (head drawn) ([5]; hydrochloride): 3.3×10^-1
Inhibitory activity of the blood-plaque aggregation, ADRENALINE, a (X) ([7]; C (X)=2.5×10^-5 g/ml): 15%
Ratio of a (X) to a (R), ADRENALINE (head drawn) ([7]; adrenaline, X 2.5×10^-5 g/ml, R 5×10^-4 g/ml): 1.65×10^-1
50% lethal dose (LD 50) ([3]; hydrochloride): 1 500 mg/kg/p.o.

O=C(CCCN1CCOCC1)c1csc2ccccc12 [Compound 17]
Analgesic and anti-inflammatory activity, percentage activity a(X) [4]: 55%
a(X) / a(R), analgesic and anti-inflammatory activity [4]: 1.2
IC50 ([1]; Rattus norvegicus, barium chloride contraction, Tyrode, 38° C., read-out: Spasmolytic activity ED 50 (X)): 2.15 mg/L (≈ 7.43 µM)
ED 50 (R) / ED 50 (X) [1]: 3.4
Inhibitory activity on the blood-plaque aggregation (in words) [8]: substantially superior
LD50 at 168 h [9]: 1000 mg/kg
